Measured values reported in patent US7163921B1, “Peptide derivatives and medicinal compositions” (Nippon Shinyaku Co., Ltd., priority 2000, dated 2007).
Marks after values point to notes of the source that are not given here.

Assays:
human μ receptor = target: T1, human μ receptor (Homo sapiens, UniProt P35372); test: μ Receptor binding test ([3H] diprenorphine displacement); conditions: Ki for μ receptor divided by Ki for nociceptin receptor
T1 construct: purchased Receptor Biology
Protocol: A human μ receptor-expressing cell membrane preparation (Receptor Biology) was adjusted at the membrane protein level of 8.5 μg/mL in a Tris buffer [50 mM Tris-HCl (pH 7.8), 5 mM MgCl2, 1 mM EGTA, 0.1% BSA]. To this suspension, [^3H] diprenorphine (diluted to the final concentration of 0.13 nM in the Tris buffer) and a test substance were added, and the mixture was incubated at 25° C. for 90 minutes. Using a cell harvester and a washing solution [50 mM Tris-HCl (pH 7.8), 4° C.], the membrane was recovered onto the GF/B filter which had been pretreated with 0.3% PEI, and washed further 4 times. The filter was transferred into a vial, to which a scintillator was added, and then the radioactivity was measured using a liquid scintillation counter. A non-specific binding was regarded as a binding in the presence of 100 μM naloxone, and the difference between the total binding and the non-specific binding was regarded as the specific binding. Based on the % binding inhibition in the presence of a test substance, the IC50 was obtained and employed together with the Kd value of the [^3H] diprenorphine to calculate the Ki value of the test substance (mol/L; hereinafter referred to as M value). The M value was divided by the N value obtained in Test Example 1 to judge the selectivity of the receptor binding of the test substance.

Male mice (ddY) = test: Mouse formalin test; format: in vivo
Protocol: Male mice (ddY; 4 to 5 weeks old) were kept at a room temperature of 21 to 25° C. and a humidity of 45 to 65% in a cage having a 12-hour light/12-hour dark cycle while being fed with feed and water ad libitum, whereby being acclimatized for a period of 1 week or longer. 6 Animals in each group were employed.
The compound of Example 1 was dissolved in physiological saline. Each mouse was placed in a cylindrical tube whose diameter was about 4 cm, immobilized at its tail, and a 27G needle connected to a 1 mL syringe was inserted into its tail vein, via which 0.1 mL/10 g body weight of the drug solution was administered rapidly. In a control group, physiological saline was administered. After administration, an absorbent cotton was used for hemostasis, and the animal was returned to the observation cage. The dose of the compound of Example 1 was 1 mg or 3 mg per 1 kg body weight of each mouse.
Subsequently, each mouse was acclimatized sufficiently to the observation cage, and then placed in a retainer for the drug administration. 20 μL of a 1% formalin solution was subcutaneously administered into the plantar region of the hindpaw, and the mouse was returned to the observation cage, and examined for the duration of any aversive behavior such as licking or biting the administered hindpaw extremity over a period of 30 minutes using a stopwatch.

T1 sequence (P35372 whole entry): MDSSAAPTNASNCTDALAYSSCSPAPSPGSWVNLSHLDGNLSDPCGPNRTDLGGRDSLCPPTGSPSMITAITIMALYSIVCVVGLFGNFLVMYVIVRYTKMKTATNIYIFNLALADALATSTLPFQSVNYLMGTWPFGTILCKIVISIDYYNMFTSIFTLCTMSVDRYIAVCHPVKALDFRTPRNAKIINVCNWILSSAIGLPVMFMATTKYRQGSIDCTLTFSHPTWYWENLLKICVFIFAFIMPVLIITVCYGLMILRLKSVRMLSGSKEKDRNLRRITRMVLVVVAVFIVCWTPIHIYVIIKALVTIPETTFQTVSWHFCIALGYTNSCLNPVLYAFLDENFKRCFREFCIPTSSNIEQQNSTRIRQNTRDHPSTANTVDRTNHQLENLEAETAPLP

Question: For Cc1cc(C[C@H](NCCCCCCNC(=N)N)C(=O)N[C@@H](Cc2cc(C)c(O)c(C)c2)C(=O)N[C@@H](CCCNC(=N)N)C(=O)N[C@H](C)c2ccc3ccccc3c2)cc(C)c1O [Example 27, N-α-6-Guanidinohexyl-3,5-dimethyl-L-tyrosyl-3,5-dimethyl-L-tyrosyl-N-[(R)-1-(2-naphthyl)ethyl]-L-argininamide], which “Selectivity (M value/N value)” value (human μ receptor) is on record?
Answer: Its value is 17.

Question: How did the “Duration of aversive behavior” value (Male mice (ddY); 1 mg/kg via tail vein, 0 to 10 min after formalin administration, control 128.3) turn out when N=C(N)NCCCCCCN[C@@H](Cc1ccc(O)cc1)C(=O)N[C@@H](Cc1ccc(O)cc1)C(=O)N[C@@H](CCCNC(=N)N)C(=O)N[C@@H](Cc1c[nH]c2ccccc12)C(N)=O [Example 1, N-α-6-Guanidinohexyl-L-tyrosyl-L-tyrosyl-L-arginyl-L-tryptophanamide] was run?
Answer: Its value is 80.8** sec.

Question: And the “Duration of aversive behavior” value (Male mice (ddY); 1 mg/kg via tail vein, 10 to 30 min after formalin administration, control 261.0)?
Answer: The value was 163.8 s.

Question: And the “Duration of aversive behavior” value (Male mice (ddY); 3 mg/kg via tail vein, 0 to 10 min after formalin administration, control 128.3)?
Answer: The value was 41.00** sec.

Question: What about the “Duration of aversive behavior” value (Male mice (ddY); 3 mg/kg via tail vein, 10 to 30 min after formalin administration, control 261.0) of the same compound?
Answer: Its value is 112.8** sec.

Question: And the “Selectivity (M value/N value)” value (human μ receptor)?
Answer: The value was 93.

Question: Cc1cc(C[C@H](NCCCCCCNC(=N)N)C(=O)N[C@@H](Cc2ccc(O)cc2)C(=O)N[C@@H](CCCNC(=N)N)C(=O)N[C@H](C)c2ccc3ccccc3c2)cc(C)c1O [Example 25, N-α-6-Guanidinohexyl-3,5-dimethyl-L-tyrosyl-L-tyrosyl-N-[(R)-1-(2-naphthyl)ethyl]-L-argininamide] was tested. Which “Selectivity (M value/N value)” value (human μ receptor) did it give?
Answer: Its value is 15.
